Results on 26 molecules are retold here after US20230227409A1, “QUINOLINONE DERIVATIVES AS METHIONINE ADENOSYLTRANSFERASE 2A INHIBITORS” (IDEAYA BIOSCIENCES, INC., priority 2020, published 2023).

For the first assay, the target named is T1, Human MAT2A (Homo sapiens, UniProt P31153).
T1 construct: Human MAT2A: Cepter, amino acids 1-395; purchased Cepter clone ID 329, lot 00023-123; clone ID 334, lot 00023-148
T1 sequence (P31153 whole entry, the tested form may be a part): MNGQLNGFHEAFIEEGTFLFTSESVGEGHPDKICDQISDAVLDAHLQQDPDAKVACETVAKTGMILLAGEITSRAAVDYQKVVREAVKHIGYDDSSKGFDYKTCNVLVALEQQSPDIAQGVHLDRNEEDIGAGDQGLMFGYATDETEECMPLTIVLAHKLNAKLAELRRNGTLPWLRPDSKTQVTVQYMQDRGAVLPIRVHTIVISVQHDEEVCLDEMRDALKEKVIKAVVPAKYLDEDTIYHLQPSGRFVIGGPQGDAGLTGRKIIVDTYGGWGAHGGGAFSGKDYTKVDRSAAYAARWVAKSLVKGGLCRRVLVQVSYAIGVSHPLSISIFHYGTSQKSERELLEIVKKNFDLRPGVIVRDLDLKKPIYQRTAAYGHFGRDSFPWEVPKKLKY
Description: Phosphate Sensor Fluorescence Assay (Biologic Example A). As to conditions: MAT2A enzyme inhibition, Biological Example A; 500 uM L-methionine, 500 uM ATP; class symbols. The format is biochemical. The procedure: (§1) The ability of the compound of present disclosure to inhibit MAT2A enzyme was determined using a Phosphate Sensor Fluorescence Assay described below.
(§2) MAT2A enzyme is incubated with a test compound in DMSO or DMSO and its substrates (L-methionine and ATP) in a microtiter plate. The enzymatic reaction is stopped by the addition of Working Phosphate Sensor Mixture. The plate is analyzed for fluorescence at 450 nm. The high control (DMSO with enzyme and its substrates) gives high fluorescence which represents no inhibition of enzymatic activity while the low control (DMSO with MAT2A substrates and no enzyme) gives low fluorescence which represents full inhibition of enzymatic activity.
Human MAT2A: Cepter, amino acids 1-395
Assay Buffer: 50 mM Tris, pH 7.5/50 mM KCl/10 mM MgCl2/0.01% Brij-35/1 mM DTT/0.1% BGG/40 nM PNP/6 uM 7-MEG
MAT2A: 10 nM for Cepter clone ID 329, lot 00023-123 before the addition of Working Phosphate Sensor Mixture • 5 nM for Cepter clone ID 334, lot 00023-148 before the addition of Working Phosphate Sensor Mixture
(§3) L-methionine: 500 uM before the addition of Working Phosphate Sensor Mixture
ATP: 500 uM before the addition of Working Phosphate Sensor Mixture Procedure:
(§4) For the assay, a mixture of 1 mM L-methionine/1 mM ATP (2× final pre-stopped concentration) in assay buffer; MAT2A (2× final pre-stopped concentration) in Assay Buffer and Working Phosphate Sensor Mixture (1.5 uM Phosphate Sensor/30 mM EDTA in Assay Buffer, which is 3× final concentrations) were prepared. Test compounds or DMSO were added to the appropriate well suing D300e digital dispenser. 5 μl/well of Assay Buffer was added to the wells corresponding to the negative control and 5 μl/well of MAT2A was added to all the wells except for those corresponding to the negative control. After incubating the plate at room temperature for 15 minutes, 5 μl/well of the 1 mM L-methionine/1 mM ATP mixture was added to all wells. The plate was centrifuged at 1000 rpm for 1 minute and then incubated at room temperature for 1 hour. 5 μl of the Working Phosphate Sensor Mixture was added to all wells and the plate was centrifuged at 1000 rpm for 1 minute. The plate was read for fluorescence at 450 nm after exciting at 430 nm.
(§5) Percent inhibition was calculated in Chemical and Biological Information System (CBIS), (ChemInnovation Software Inc.). Curves were fitted by CBIS as % inhibition vs. log [compound concentration] using a 4-parameter inhibition model.
(§6) Fit=(A+((B−A)/(1+((C/x)^D))))
(§7) Compounds 1.001-1.021 were tested using the procedure described in Biological Example A, described above. Compounds 1.022-1.026 were tested using the procedure described in Biological Example B, described above.
As to `O=c1[nH]c2ccccc2c(-c2ccccc2)c1Sc1ncnc2sccc12` [Compound 1.002], the IC50 was in the range of 500 to 1000 nM. On to `O=c1[nH]c2ccc(Cl)cc2c(-c2ccccc2)c1S(=O)(=O)c1ccccc1` [Compound 1.003], for which the IC50 was 1000 to 10000 nM. The same measure, in the same setting: next, `COc1c(-c2ccccc2)c2cc(Cl)ccc2[nH]c1=O` [Compound 1.004, 6-chloro-3-methoxy-4-phenylquinolin-2(1H)-one]: 200 to 500 nM.

`CS(=O)(=O)c1c(-c2ccccc2)c2cc(Cl)ccc2[nH]c1=O` [Compound 1.005, 6-chloro-3-(methylsulfonyl)-4-phenylquinolin-2(1H)-one] came in with an IC50 of 1000 to 10000 nM. Still for that read-out and setting: under `O=c1[nH]c2ccc(Cl)cc2c(-c2ccccc2)c1Sc1ncnc2sccc12` [Compound 1.006, 6-chloro-4-phenyl-3-(thieno[2,3-d]pyrimidin-4-ylthio)quinolin-2(1H)-one] stands 1000 to 10000 nM; under `CN(C)c1c(-c2ccccc2)c2cc(Cl)ccc2[nH]c1=O` [Compound 1.008, 6-chloro-3-(dimethylamino)-4-phenylquinolin-2(1H)-one], 1000 to 10000 nM; under `COc1c(-c2ccccc2)c2cc(Br)ccc2[nH]c1=O` [Compound 1.009, 6-bromo-3-methoxy-4-phenylquinolin-2(1H)-one], 10 to 200 nM. Still for that read-out and setting: under `O=c1[nH]c2ccc(Cl)cc2c(-c2ccccc2)c1O` [Compound 1.010, 6-chloro-3-hydroxy-4-phenylquinolin-2(1H)-one] stands 10 to 200 nM.

`COc1c(-c2ccccc2)c2cc(C3CC3)ccc2[nH]c1=O` [Compound 1.011, 6-cyclopropyl-3-methoxy-4-phenylquinolin-2(1H)-one] showed an IC50 of 10 to 200 nM. Still for that read-out and setting: under `COc1c(-c2cccnc2)c2cc(Cl)ccc2[nH]c1=O` [Compound 1.012, 6-chloro-3-methoxy-4-(pyridin-3-yl)quinolin-2(1H)-one] stands 200 to 500 nM. Still for that read-out and setting: next, `O=c1[nH]c2ccc(Cl)cc2c(-c2ccccc2)c1Sc1nc2ccccc2s1` [Compound 1.013, 3-(benzo[d]thiazol-2-ylthio)-6-chloro-4-phenylquinolin-2(1H)-one]: 1000 to 10000 nM; `CNS(=O)(=O)c1c(-c2ccccc2)c2cc(Cl)ccc2[nH]c1=O` [Compound 1.014, 6-chloro-N-methyl-2-oxo-4-phenyl-1,2-dihydroquinoline-3-sulfonamide]: 1000 to 10000 nM; `O=c1[nH]c2ccc(Cl)cc2c(-c2ccccc2)c1S` [Compound 1.015, 6-chloro-3-mercapto-4-phenylquinolin-2(1H)-one]: 10 to 200 nM. For `CCCNS(=O)(=O)c1c(-c2ccccc2)c2cc(Cl)ccc2[nH]c1=O` [Compound 1.016, 6-chloro-2-oxo-4-phenyl-N-propyl-1,2-dihydroquinoline-3-sulfonamide], the IC50 lay within 1000 to 10000 nM. The same measure, in the same setting: under `Cc1ccccc1-c1c(O)c(=O)[nH]c2ccc(Cl)cc12` [Compound 1.017, 6-chloro-3-hydroxy-4-(o-tolyl)quinolin-2(1H)-one] stands 10 to 200 nM; under `Cc1ccccc1-c1c(O)c(=O)[nH]c2ccc(C(F)(F)F)cc12` [Compound 1.018, 3-hydroxy-4-(o-tolyl)-6-(trifluoromethyl)quinolin-2(1H)-one], 10 to 200 nM. As to `COc1c(-c2ccccc2)c2cc(C(F)(F)F)ccc2[nH]c1=O` [Compound 1.019, 3-methoxy-4-phenyl-6-(trifluoromethyl)quinolin-2(1H)-one], the IC50 is 10 to 200 nM.

`O=c1[nH]c2ccc(C(F)(F)F)cc2c(-c2ccccc2)c1O` [Compound 1.020, 3-hydroxy-4-phenyl-6-(trifluoromethyl)quinolin-2(1H)-one] had an IC50 of 10 to 200 nM. With `O=c1[nH]c2ccc(Cl)cc2c(-c2ccccc2Cl)c1O` [Compound 1.021, 6-chloro-4-(2-chlorophenyl)-3-hydroxyquinolin-2(1H)-one], the IC50 lay in the range of 10 to 200 nM.

Still in this assay, the particulars now being: MAT2A enzyme inhibition, Biological Example A; 500 uM L-methionine, 500 uM ATP; given as bound.
The molecule `Cn1c(=O)cc(-c2ccccc2)c2cc(Cl)ccc21` [Compound 1.001, 6-chloro-1-methyl-4-phenylquinolin-2(1H)-one] gave a 50% inhibitory concentration (IC50) greater than 10000 nM.

Staying with this assay, now noted: MAT2A enzyme inhibition, Biological Example A; 500 uM L-methionine, 500 uM ATP; unit inferred.
Take `CNc1c(-c2ccccc2)c2cc(Cl)ccc2[nH]c1=O` [Compound 1.007, 6-chloro-3-(methylamino)-4-phenylquinolin-2(1H)-one]: the IC50 was greater than 10000 nM.

A further assay concerns the target T1, Human MAT2A. The assay can be described thus: Phosphate Sensor Fluorescence Assay (Biologic Example B). The note with it: MAT2A enzyme inhibition, Biological Example B; 5.8 nM MAT2A, 500 uM L-methionine, 500 uM ATP; class symbols. The format is biochemical. The procedure: as §1, §2
MAT2A: 5.8 nM MAT2A (1-395), Cepter, clone ID 334, lot 00023-148 before the addition of Working Phosphate Sensor Mixture
as §3
ATP: 500 uM before the addition of Working Phosphate Sensor Mixture
as §4, with “well using a Beckman Coulter Echo 550 acoustic liquid handler. 10 µL/well” for “well suing D300e digital dispenser. 5 μl/well”, “and 10 µL/well” for “and 5 μl/well”, “minutes, 10 μL/well” for “minutes, 5 μl/well”, “hour. 10 μL” for “hour. 5 μl”, “430 nm on a Tecan Spark microplate reader.” for “430 nm.”
as §5, §6, §7
Molecule `Cn1nccc1-c1c(O)c(=O)[nH]c2ccc(C(F)(F)F)cc12` [Compound 1.022, 3-Hydroxy-4-(1-methyl-1H-pyrazol-5-yl)-6-(trifluoromethyl)quinolin-2(1H)-one] had an IC50 of 10 to 200 nM. `Cc1ncccc1-c1c(O)c(=O)[nH]c2ccc(C(F)(F)F)cc12` [Compound 1.023, 3-Hydroxy-4-(2-methylpyridin-3-yl)-6-(trifluoromethyl)quinolin-2(1H)-one] displayed an IC50 of less than 10 nM. Same read-out and setting: next, `COc1cc(C(F)(F)F)cc2c(-c3ccccc3C)c(O)c(=O)[nH]c12` [Compound 1.024, 3-Hydroxy-8-methoxy-4-(o-tolyl)-6-(trifluoromethyl)quinolin-2(1H)-one]: 10 to 200 nM; `Cc1ncccc1-c1c(O)c(=O)[nH]c2ccc(Br)cc12` [Compound 1.025, 6-Bromo-3-hydroxy-4-(2-methylpyridin-3-yl)quinolin-2(1H)-one]: 10 to 200 nM; `Cc1ncccc1-c1c(O)c(=O)[nH]c2ccc(Cl)cc12` [Compound 1.026, 6-Chloro-3-hydroxy-4-(2-methylpyridin-3-yl)quinolin-2(1H)-one]: 10 to 200 nM.

The IC50 is the midpoint of a concentration-inhibition curve. The low end stands for higher potency, the high end for lower potency.
